In patent US5378706A, “Fused-thiazole derivatives active on the cholinergic system, and pharmaceutical compositions containing same” (Sanofi, priority 1987, dated 1995):
pIC50: −log10 of the molar value.

Legend:
[1] = target: T1, M1 -type muscarinic cholinergic receptor (Rattus norvegicus, UniProt P08482); test: biochemical; type: binding; details: for pIC50: rat hippocampus homogenate, 3H-PZ 1 nM, 2 hours at 4° C., pH 7.40, read-out: IC50 3H-PZ (M1); for ratio R of the IC50 values for the M1 and M2 receptors: selectivity, values correspond to IC50 M2 / IC50 M1
T1 sequence (P08482 1-460): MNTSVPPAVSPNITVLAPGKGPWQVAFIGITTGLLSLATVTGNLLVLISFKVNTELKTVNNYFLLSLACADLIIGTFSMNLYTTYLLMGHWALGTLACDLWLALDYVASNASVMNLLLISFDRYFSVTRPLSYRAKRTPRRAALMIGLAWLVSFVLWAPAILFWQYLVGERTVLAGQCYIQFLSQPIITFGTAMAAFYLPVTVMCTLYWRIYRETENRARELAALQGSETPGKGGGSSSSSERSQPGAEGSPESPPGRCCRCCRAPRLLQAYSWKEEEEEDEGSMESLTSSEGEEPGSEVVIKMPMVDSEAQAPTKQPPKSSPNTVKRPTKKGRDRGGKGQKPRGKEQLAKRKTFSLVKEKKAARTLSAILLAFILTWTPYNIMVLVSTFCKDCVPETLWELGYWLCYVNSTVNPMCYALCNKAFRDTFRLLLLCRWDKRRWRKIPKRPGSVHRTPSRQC
Protocol: The interaction of the molecules with the M1 -type muscarinic receptors was studied by in vitro measurement, on a rat hippocampus homogenate, of the displacement of tritiated pirenzepine from its specific binding sites. Aliquots (10 μl) of a 5% (w/v) rat hippocampus homogenate in an Na2 HPO4 buffer (50 mM, pH 7.40) are incubated for 2 hours at 4° C. in the presence of ^3 H-PZ (76 Ci/mmol; final concentration 1 nM) and increasing concentrations of the test product. The final volume is 2 ml. The reaction is stopped by centrifugation for 10 minutes at 50,000×g. After decantation and washing of the residues, the bound radioactivity is counted by liquid scintillation. The non-specific binding is determined in the presence of 10 μM atropine sulfate.

[2] = target: T2, M2 -type muscarinic cholinergic receptor (Cavia porcellus, UniProt H0VRN8); test: Affinity for the M2-type muscarinic cholinergic receptor, displacement of tritiated N-methylscopolamine (3H-NMS) on smooth guinea-pig ileum muscle homogenate; type: binding; details: guinea-pig ileum smooth muscle homogenate, 3H-NMS 0.3 nM, 20 minutes at 30° C., pH 7.5; read-out: IC50 3H-NMS (M2)
T2 construct: on a smooth guinea-pig ileum muscle homogenate; from tissue; host or cells: guinea-pig ileum smooth muscle homogenate
T2 sequence (H0VRN8 1-466): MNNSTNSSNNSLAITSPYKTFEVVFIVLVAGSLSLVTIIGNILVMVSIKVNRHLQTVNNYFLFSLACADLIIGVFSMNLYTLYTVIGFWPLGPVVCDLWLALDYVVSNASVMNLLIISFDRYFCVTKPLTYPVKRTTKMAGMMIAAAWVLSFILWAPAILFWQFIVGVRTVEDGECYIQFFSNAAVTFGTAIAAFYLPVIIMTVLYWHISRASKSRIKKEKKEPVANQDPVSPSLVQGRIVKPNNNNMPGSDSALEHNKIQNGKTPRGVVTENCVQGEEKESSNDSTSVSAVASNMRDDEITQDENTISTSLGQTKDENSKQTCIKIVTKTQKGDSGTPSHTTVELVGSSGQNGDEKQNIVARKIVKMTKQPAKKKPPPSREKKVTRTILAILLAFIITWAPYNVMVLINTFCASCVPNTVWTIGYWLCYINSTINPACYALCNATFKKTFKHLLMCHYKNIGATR
Protocol: The M1 -type receptors are concentrated in certain regions of the brain, such as the hippocampus, the cerebral cortex and the striatum, and also in the sympathetic ganglia. These binding sites can be selectively labeled with tritiated pirenzepine (^3 H-PZ). The M2 -type receptors predominate in the heart and the ileum and can be labeled with tritiated N-methyl-scopolamine (^3 H-NMS). The selectivity of the products of the invention with respect to the M1 and M2 sites was determined by studying their in vitro interaction with ^3 H-PZ and ^3 H-NMS firmly bound with a high affinity to rat hippocampus membranes and smooth guinea-pig ileum muscle, respectively.
The interaction with the M2 -type muscarinic receptors was studied by in vitro measurement, on a smooth guinea-pig ileum muscle homogenate, of the displacement of tritiated N-methylscopolamine from its specific binding sites. […] The final volume is 1 ml. The reaction is stopped by centrifugation for 5 minutes at 15,000×g. The non-specific binding is determined in the presence of 10 mM atropine sulfate.
The IC50 for ^3 H-PZ displacement represents the affinity for the M1 receptor; the IC50 for ^3 H-NMS displacement represents the affinity for the M2 receptor.

[3] = system: M1 central muscarinic cholinergic receptors; test: Antagonism of rotations induced by intrastriatal injection of pirenzepine in mice; type: in vivo, mice (Swiss, CD 1); details: for Pirenzepine antagonism ED50 i.p.: 15 minutes before intrastriatal pirenzepine 1 μg; for Pirenzepine antagonism ED50 p.o.: 30 minutes before intrastriatal pirenzepine 1 μg
Protocol: Pirenzepine (PZ) is a specific antagonist of the M1 central muscarinic cholinergic receptors. The intrastriatal injection of PZ into mice induces rotatory behavoir. The antagonism of this behavoir by the products according to the invention was studied.
The products according to the invention are administered either intraperitoneally (i.p.) or orally (p.o.) after solubilization in distilled water or suspension in a 5% solution of gum arabic. The control animals receive the pure solvent under the same conditions.
The animals used are female mice (Swiss, CD 1, Charles River, France) with a body weight of between 25 and 30 grams.
The pirenzepine is dissolved in a phosphate buffer and the pH of the solution is 6.
The test products or their solvents are administered in a volume of 0.4 ml per 20 g of body weight, either by i.p. injection or orally via an esophageal tube.
The number of contralateral rotations (rotations in the opposite direction to the side injected) was counted for three 2-minute periods after injection of the pirenzepine: 2nd to 4th, 8th to 10th and 13th to 15th minutes. Each treatment consists of 3 to 4 doses and 10 animals per dose. The total number of rotations and the percentage antagonism with respect to the control group are calculated for each treatment.

[4] = Acute toxicity, 24 hours mortality after i.p. administration to mice; details: mouse, in vivo, ip, female mice, 20 g
Protocol: Finally, the acute toxicity was determined for various products according to the invention. The products were administered intraperitoneally in increasing doses to groups of 10 female mice (Swiss, CD 1, Charles River, France) with a body weight of 20 g.

| Structure (SMILES) | pIC50 [1] | ratio R of the IC50 values for the M1 and M2 receptors [1] | pIC50 [2] | Pirenzepine antagonism ED50 i.p. [3] [mg/kg] | Pirenzepine antagonism ED50 p.o. [3] [mg/kg] | LD50 at 24 h [4] [mg/kg] |
| --- | --- | --- | --- | --- | --- | --- |
| CCN(CC)CCCNc1nc(C)c(-c2ccccc2)s1 [SR 44373 A] | 6.15 | 21 | 4.82 | 0.3 | 1 | 75 |
| CCN(CC)CCNc1nc(-c2c(C)cc(C)cc2C)cs1 [SR 44372 A] | 6.92 | 41 | 5.30 | 1 | 3 | 75 |
| c1ccc(-c2csc(NCCN3CCOCC3)n2)cc1 [SR 44244 A] |  |  |  | 8 | 20 | 250 |
| CCN(CC)CCCNc1nc(-c2c(C)cc(C)cc2C)cs1 [SR 44347 A] | 6.46 | 37 | 4.89 | 0.03 | 0.20 | 60 |
| CCN(CC)CCCNc1nc(-c2ccccc2)cs1 [SR 44374 A] | 6.40 | 20 | 5.10 | 3 |  | 150 |
| CCN(CC)CCNc1nc(-c2ccccc2)cs1 [SR 44286 A] | 5.22 | 16 | 4.00 | 3 | 10 | 200 |
| c1ccc(-c2csc(NCCCN3CCOCC3)n2)cc1 [SR 44284 A] | 5.10 | 5 | 4.40 | 8 |  | 450 |
| CN(C)CCCNc1nc(-c2ccccc2)cs1 [SR 44345 A] | 6.00 | 70 | 4.15 | 0.5 | 1 | 200 |
